Blank lines part the entries; values can stand above or below the compound they belong to.
Legend:
Orexin receptor type 2 [1] = target: T1, Orexin receptor type 2 (Homo sapiens, UniProt O43614); test: Binding affinity to human OX2 receptor
T1 sequence (O43614 whole entry): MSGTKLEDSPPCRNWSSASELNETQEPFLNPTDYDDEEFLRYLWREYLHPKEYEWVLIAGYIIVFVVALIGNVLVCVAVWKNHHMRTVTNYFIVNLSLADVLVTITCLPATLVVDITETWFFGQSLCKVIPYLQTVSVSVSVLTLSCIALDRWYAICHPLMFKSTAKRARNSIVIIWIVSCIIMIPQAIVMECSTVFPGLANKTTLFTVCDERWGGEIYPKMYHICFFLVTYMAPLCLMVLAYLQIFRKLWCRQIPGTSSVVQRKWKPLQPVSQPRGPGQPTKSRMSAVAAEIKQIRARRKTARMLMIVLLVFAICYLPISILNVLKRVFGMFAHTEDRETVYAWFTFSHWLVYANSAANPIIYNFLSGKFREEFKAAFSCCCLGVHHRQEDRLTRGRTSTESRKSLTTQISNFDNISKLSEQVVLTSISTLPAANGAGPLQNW

[2] = target: T2, Orexin/Hypocretin receptor type 1 (Homo sapiens, UniProt O43613); test: Binding affinity to human OX1 receptor
T2 sequence (O43613 whole entry): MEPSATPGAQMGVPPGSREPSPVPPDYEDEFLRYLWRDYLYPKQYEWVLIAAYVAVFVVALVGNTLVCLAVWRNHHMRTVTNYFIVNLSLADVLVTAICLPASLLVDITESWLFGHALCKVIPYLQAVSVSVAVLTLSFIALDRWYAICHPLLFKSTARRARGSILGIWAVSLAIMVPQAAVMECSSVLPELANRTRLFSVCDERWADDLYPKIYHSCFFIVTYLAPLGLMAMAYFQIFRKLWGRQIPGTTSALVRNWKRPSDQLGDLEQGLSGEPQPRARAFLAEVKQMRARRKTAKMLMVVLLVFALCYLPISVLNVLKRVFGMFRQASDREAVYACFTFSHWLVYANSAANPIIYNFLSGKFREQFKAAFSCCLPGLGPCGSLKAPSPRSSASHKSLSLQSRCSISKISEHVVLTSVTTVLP

[3] = Half life in Sprague-Dawley rat at 1 mg/kg, iv; format: ADME, organism-based; conditions: in vivo
Rattus norvegicus [4] = test: Ex vivo OX2 receptor occupancy in Sprague-Dawley rat brain at 30 mg/kg, po after 30 mins by autoradiographic analysis; format: functional
[5] = target: Voltage-gated inwardly rectifying potassium channel KCNH2 (Homo sapiens, UniProt Q12809); test: Inhibition of [3H]-astemizole binding to human ERG expressed in HEK293 cells
[6] = Volume of distribution at steady state in Sprague-Dawley rat at 10 mg/kg, po and 1 mg/kg, iv; format: ADME, organism-based; conditions: in vivo, read-out: Vdss
Orexin receptor type 2 [7] = target: T3, Orexin receptor type 2 (Rattus norvegicus, UniProt P56719); test: Binding affinity to rat OX2 receptor
T3 sequence (P56719 whole entry): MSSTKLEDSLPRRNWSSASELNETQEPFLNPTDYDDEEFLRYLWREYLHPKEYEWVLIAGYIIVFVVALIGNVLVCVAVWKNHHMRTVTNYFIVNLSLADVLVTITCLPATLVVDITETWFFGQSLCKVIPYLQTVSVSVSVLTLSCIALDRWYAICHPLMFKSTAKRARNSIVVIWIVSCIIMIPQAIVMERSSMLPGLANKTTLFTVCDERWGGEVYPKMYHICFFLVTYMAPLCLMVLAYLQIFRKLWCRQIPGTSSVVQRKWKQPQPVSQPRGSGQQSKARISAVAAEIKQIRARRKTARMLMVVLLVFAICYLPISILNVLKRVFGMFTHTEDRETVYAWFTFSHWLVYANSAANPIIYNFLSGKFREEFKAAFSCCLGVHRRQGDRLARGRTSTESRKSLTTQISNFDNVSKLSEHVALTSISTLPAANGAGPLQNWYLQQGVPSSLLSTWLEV

[8] = Clearance in Sprague-Dawley rat at 10 mg/kg, po and 1 mg/kg, iv; format: ADME, organism-based; conditions: in vivo
[9] = Oral bioavailability in Sprague-Dawley rat at 10 mg/kg; format: ADME, organism-based; conditions: in vivo
[10] = Cmax in Sprague-Dawley rat at 10 mg/kg, po; format: ADME, organism-based; parameters: dose 10 mg/kg, route oral; conditions: in vivo
[11] = Plasma protein binding in rat at 1 uM after 6 hrs by equilibrium dialysis method; format: ADME, cell-free; conditions: read-out: PPB (converted)
[12] = Apparent permeability from apical to basolateral side in human Caco2/TC7 cells at 10 uM; conditions: Caco-2
[13] = Apparent permeability from basolateral to apical side in human Caco2/TC7 cells at 10 uM; conditions: Caco-2
[14] = Plasma protein binding in human at 1 uM after 6 hrs by equilibrium dialysis method; format: ADME, cell-free; conditions: read-out: PPB (converted)
Rattus norvegicus [15] = test: Ex vivo OX2 receptor occupancy in Sprague-Dawley rat brain at 30 mg/kg, po after 15 mins by autoradiographic analysis; format: functional
[16] = Protein binding in rat brain at 5 uM after 5 hrs by equilibrium dialysis method; format: ADME, tissue-based; conditions: read-out: PB (converted)
Cytochrome P450 1A2 = target: T4, Cytochrome P450 1A2 (Homo sapiens, UniProt P05177); test: Inhibition of CYP1A2 in human liver microsomes using phenacetin as substrate by LC-MS/MS analysis
T4 sequence (P05177 whole entry): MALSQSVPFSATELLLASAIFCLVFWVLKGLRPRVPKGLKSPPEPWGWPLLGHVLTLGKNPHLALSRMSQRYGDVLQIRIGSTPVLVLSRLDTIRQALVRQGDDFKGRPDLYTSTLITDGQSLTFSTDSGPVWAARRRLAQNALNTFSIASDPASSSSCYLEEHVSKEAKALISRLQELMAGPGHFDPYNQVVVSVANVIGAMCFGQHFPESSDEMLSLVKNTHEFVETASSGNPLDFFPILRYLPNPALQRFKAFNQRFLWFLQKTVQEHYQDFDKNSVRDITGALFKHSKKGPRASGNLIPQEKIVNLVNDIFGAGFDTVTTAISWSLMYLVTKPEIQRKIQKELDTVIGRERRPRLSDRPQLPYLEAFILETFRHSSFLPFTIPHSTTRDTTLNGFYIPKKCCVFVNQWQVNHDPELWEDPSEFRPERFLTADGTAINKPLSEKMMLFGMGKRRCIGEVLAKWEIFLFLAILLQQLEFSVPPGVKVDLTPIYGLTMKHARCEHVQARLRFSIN

Rattus norvegicus [17] = test: Ex vivo OX2 receptor occupancy in Sprague-Dawley rat brain at 10 mg/kg, po after 30 mins by autoradiographic analysis; format: functional
[18] = Metabolic stability in human liver microsomes assessed as extraction ratio at 1 uM measured over 1 hr by LC-MS/MS analysis
[19] = Metabolic stability in rat liver microsomes assessed as extraction ratio at 1 uM measured over 1 hr by LC-MS/MS analysis

Voltage-gated inwardly rectifying potassium channel KCNH2, sequence (Q12809 whole entry): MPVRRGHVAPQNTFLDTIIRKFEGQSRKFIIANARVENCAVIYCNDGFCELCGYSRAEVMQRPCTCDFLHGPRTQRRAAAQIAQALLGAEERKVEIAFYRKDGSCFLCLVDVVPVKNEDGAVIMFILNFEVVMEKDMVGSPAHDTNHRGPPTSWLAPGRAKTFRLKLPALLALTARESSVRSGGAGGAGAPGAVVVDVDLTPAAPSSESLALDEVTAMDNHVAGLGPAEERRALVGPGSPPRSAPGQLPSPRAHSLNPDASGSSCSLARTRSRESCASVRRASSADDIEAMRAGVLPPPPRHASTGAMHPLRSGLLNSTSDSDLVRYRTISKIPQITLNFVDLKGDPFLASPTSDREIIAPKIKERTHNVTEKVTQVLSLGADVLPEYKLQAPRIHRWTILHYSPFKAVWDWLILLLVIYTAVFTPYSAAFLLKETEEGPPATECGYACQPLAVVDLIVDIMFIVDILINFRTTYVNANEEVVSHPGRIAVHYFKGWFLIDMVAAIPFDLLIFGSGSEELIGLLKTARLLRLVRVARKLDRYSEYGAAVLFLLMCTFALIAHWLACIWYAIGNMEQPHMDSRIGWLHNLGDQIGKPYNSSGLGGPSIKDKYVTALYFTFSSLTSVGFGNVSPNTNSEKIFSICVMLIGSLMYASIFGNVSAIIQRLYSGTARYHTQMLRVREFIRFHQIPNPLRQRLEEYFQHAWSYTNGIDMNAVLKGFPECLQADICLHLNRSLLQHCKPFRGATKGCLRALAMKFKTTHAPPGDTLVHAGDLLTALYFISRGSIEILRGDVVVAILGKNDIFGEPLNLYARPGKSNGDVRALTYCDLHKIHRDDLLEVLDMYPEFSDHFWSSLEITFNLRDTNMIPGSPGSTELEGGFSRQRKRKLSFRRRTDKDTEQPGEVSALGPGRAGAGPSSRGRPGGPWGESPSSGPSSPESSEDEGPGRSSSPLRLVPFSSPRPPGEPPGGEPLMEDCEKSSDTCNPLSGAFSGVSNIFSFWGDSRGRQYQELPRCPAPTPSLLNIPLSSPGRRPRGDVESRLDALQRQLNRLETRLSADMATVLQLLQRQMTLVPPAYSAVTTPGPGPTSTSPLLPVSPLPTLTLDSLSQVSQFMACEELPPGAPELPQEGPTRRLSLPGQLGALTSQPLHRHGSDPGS

- Ki (Orexin receptor type 2 [1]): 180 nM
- Ki [2]: > 10000 nM
Structure (SMILES): Cc1cc(C)nc(N2C[C@H]3CN(C(=O)c4ccccc4-c4cccc(F)c4)C[C@H]3C2)n1

- half-life [3]: 16.2 min
- Vd [6]: 0.7 L/kg
- Ki (Orexin receptor type 2 [7]): 2 nM
- clearance [8]: 52.1 mL/min/kg
- bioavailability [9]: 8%
- Cmax [10]: 148 ng/mL
Structure (SMILES): Cc1cc(C)nc(N2C[C@H]3CN(C(=O)c4ccccc4-n4nccn4)C[C@H]3C2)n1
- Occ (Rattus norvegicus [4]): 67%
- IC50 [5]: > 10000 nM

- Ki (Orexin receptor type 2 [1]): 768 nM
- Ki [2]: > 10000 nM
Structure (SMILES): O=C(c1ccccc1-n1cccn1)N1C[C@@H]2CN(c3cnc4ccccc4n3)C[C@@H]2C1

Structure (SMILES): Cc1cc(C)nc(N2C[C@H]3CN(C(=O)c4cc(F)ccc4-n4nccn4)C[C@H]3C2)n1
- IC50 [5]: > 10000 nM

- Ki (Orexin receptor type 2 [1]): 875 nM
- Ki [2]: > 10000 nM
Structure (SMILES): COc1ccc(C(=O)N2C[C@@H]3CN(c4nc5ccc(OC)cc5s4)C[C@@H]3C2)c(OC)c1

- Ki (Orexin receptor type 2 [1]): 746 nM
- Ki [2]: > 10000 nM
Structure (SMILES): COc1ccc(C(=O)N2C[C@@H]3CN(c4nc5ccc(F)cc5s4)C[C@@H]3C2)c(OC)c1

- Ki (Orexin receptor type 2 [1]): 421 nM
- Ki [2]: 765 nM
Structure (SMILES): O=C(c1ccccc1-c1ccccc1)N1C[C@@H]2CN(c3nccc(-c4ccccc4)n3)C[C@@H]2C1

- Ki (Orexin receptor type 2 [1]): 294 nM
- Ki [2]: 925 nM
Structure (SMILES): O=C(c1ccccc1-c1ccccc1)N1C[C@@H]2CN(c3nc4ccc(F)cc4s3)C[C@@H]2C1

- fraction unbound at 6 h, 1 µM [11]: 0.273
- half-life [3]: 12 min
- Papp A→B at 10 µM [12]: 62.3 ×10⁻⁶ cm/s
- Papp B→A at 10 µM [13]: 49.7 ×10⁻⁶ cm/s
- fraction unbound at 6 h, 1 µM [14]: 0.095
- Vd [6]: 0.7 L/kg
- fraction unbound at 5 h, 5 µM [16]: 0.156
- clearance [8]: 57 mL/min/kg
- bioavailability [9]: 21%
- IC50 (Cytochrome P450 1A2): 3100 nM
Structure (SMILES): Cc1cc(C)nc(N2C[C@H]3CN(C(=O)c4cccc(F)c4-n4nccn4)C[C@H]3C2)n1
- Occ (Rattus norvegicus [15]): 49%
- IC50 [5]: 6000 nM

- Ki (Orexin receptor type 2 [1]): 687 nM
- Ki [2]: 1400 nM
Structure (SMILES): O=C(c1ccccc1-c1ccccc1)N1C[C@@H]2CN(c3nc4ccccc4s3)C[C@@H]2C1

- Ki (Orexin receptor type 2 [1]): 9.8 nM
- Ki (Orexin receptor type 2 [7]): 7 nM
- Ki [2]: 471 nM
Structure (SMILES): Cc1cc(C)nc(N2C[C@H]3CN(C(=O)c4ccccc4-c4cccs4)C[C@H]3C2)n1
- Occ (Rattus norvegicus [17]): 26%

- Ki (Orexin receptor type 2 [1]): 51 nM
- Ki [2]: 1800 nM
Structure (SMILES): Cc1cc(C)nc(N2C[C@H]3CN(C(=O)c4c(C)ccc5ccccc45)C[C@H]3C2)n1

- Ki (Orexin receptor type 2 [1]): 510 nM
- Ki [2]: 5300 nM
Structure (SMILES): COc1ccc(C(=O)N2C[C@@H]3CN(c4nc5ccc(Cl)cc5s4)C[C@@H]3C2)c(OC)c1

- Ki (Orexin receptor type 2 [1]): 899 nM
- Ki [2]: > 10000 nM
Structure (SMILES): Cc1ccnc(N2C[C@H]3CN(C(=O)c4ccccc4-c4ccccc4)C[C@H]3C2)n1

- Ki (Orexin receptor type 2 [1]): 680 nM
- Ki [2]: > 10000 nM
Structure (SMILES): COc1ccc(C(=O)N2C[C@@H]3CN(c4nc5ccc(C)cc5s4)C[C@@H]3C2)c(OC)c1

- fraction unbound at 6 h, 1 µM [11]: 0.116
- half-life [3]: 22.2 min
- Papp A→B at 10 µM [12]: 58.1 ×10⁻⁶ cm/s
- Papp B→A at 10 µM [13]: 26.8 ×10⁻⁶ cm/s
- fraction unbound at 6 h, 1 µM [14]: 0.075
- Vd [6]: 1.5 L/kg
- Ki (Orexin receptor type 2 [7]): 14 nM
- clearance [8]: 65.5 mL/min/kg
- bioavailability [9]: 18%
- IC50 (Cytochrome P450 1A2): 9300 nM
Structure (SMILES): Cc1cc(C)nc(N2C[C@H]3CN(C(=O)c4ccc(F)cc4-n4nccn4)C[C@H]3C2)n1
- Occ (Rattus norvegicus [4]): 72%
- IC50 [5]: > 10000 nM

- half-life [3]: 22.8 min
- Ki (Orexin receptor type 2 [1]): 30 nM
- Vd [6]: 3.9 L/kg
- hepatic extraction ratio at 1 h, 1 µM [18]: 0.73
- Ki (Orexin receptor type 2 [7]): 39 nM
- hepatic extraction ratio at 1 h, 1 µM [19]: 0.51
- clearance [8]: 150 mL/min/kg
- Ki [2]: 3650 nM
- bioavailability [9]: 22%
Structure (SMILES): Cc1cc(C)nc(N2C[C@H]3CN(C(=O)c4ccccc4-c4ncn[nH]4)C[C@H]3C2)n1
- Occ (Rattus norvegicus [15]): 0%
- IC50 [5]: > 10000 nM

- Ki (Orexin receptor type 2 [1]): 137 nM
- Ki [2]: 267 nM
Structure (SMILES): O=C(c1ccccc1-c1cccs1)N1C[C@@H]2CN(c3nc4ccc(F)cc4s3)C[C@@H]2C1

- Ki (Orexin receptor type 2 [1]): 240 nM
- Ki [2]: 1320 nM
Structure (SMILES): O=C(c1ccccc1-c1ccccc1)N1C[C@@H]2CN(c3cnc4ccccc4n3)C[C@@H]2C1

- Ki (Orexin receptor type 2 [1]): 141 nM
- Ki [2]: 3300 nM
Structure (SMILES): COc1ccnc(N2C[C@H]3CN(C(=O)c4c(C)ccc5ccccc45)C[C@H]3C2)n1

- Ki (Orexin receptor type 2 [7]): 38 nM
Structure (SMILES): COc1ccc(-n2nccn2)c(C(=O)N2C[C@@H]3CN(c4nc(C)cc(C)n4)C[C@@H]3C2)c1
- IC50 [5]: 8100 nM

- Ki (Orexin receptor type 2 [7]): 12 nM
Structure (SMILES): Cc1cc(C)nc(N2C[C@H]3CN(C(=O)c4c(C)cccc4-n4nccn4)C[C@H]3C2)n1
- IC50 [5]: 6900 nM

- Ki (Orexin receptor type 2 [1]): 41 nM
- Ki [2]: 257 nM
Structure (SMILES): COc1cc(OC)nc(N2C[C@H]3CN(C(=O)c4ccccc4-c4cccs4)C[C@H]3C2)n1

- Ki (Orexin receptor type 2 [1]): 106 nM
- Ki [2]: 623 nM
Structure (SMILES): O=C(c1ccccc1-c1cccs1)N1C[C@@H]2CN(c3cnc4ccccc4n3)C[C@@H]2C1

- Ki (Orexin receptor type 2 [1]): 27 nM
- Ki [2]: 557 nM
Structure (SMILES): CCOc1ccc2ccccc2c1C(=O)N1C[C@@H]2CN(c3nc(C)cc(C)n3)C[C@@H]2C1
